{"source": "patent US6906179B2", "about": "“Antibody to SNIP1” (The General Hospital Corporation, priority 1999, dated 2005)", "key": {"SNIP-1 protein level": {"system": "SNIP-1 protein level", "assay": "ALK3Q233D-induced degradation of SNIP-1 in transfected COS cells, Western blot", "type": "cell-based", "conditions": "inhibitors added 10 hours before cell lysis; ALK3Q233D transfected COS cells", "excerpt": "The novel Smad1 interactor is a nuclear proteip (termed as Smad1 Nuclear Interactor Protein 1, SNIP-1, SEQ ID No. 3), with a carboxyterminal domain that is highly homologous to the aminoterminus of the nuclear inhibitor of protein phosphatase 1 (NIPP-1) (Wang & Lechleider, unpublished) (FIG. 31A & C). NIPP-1 (VanEynde et al., 1995) is known to be rapidly processed into smaller heat-stable intermediates, a process that may be mediated by proteasome (see Discussion in Jagiello et al., 1995). SNIP-1 is a strong interactor of Smad1, that also binds to both antizyme and HsN3 in the yeast two-hybrid assays (FIG. 311B).\nForty-eight hours after transfection, COS cells were lysed in an equal volume of lysis buffer (300 ul/plate), and the total protein concentration of each sample was measured. No major difference in protein concentration was detected among the lysates. The protein level of SNIP-1 in 100 ug of total protein lysate was determined by Western blot using anti-T7 monoclonal antibody. […] Such a decrease is dependent upon the coexpression of Smad1, DPC4 and antizyme, since replacing each of these three proteins with an unrelated protein (β galactosidase) abolishes such a decrease in ALK3Q233D transfected cells (FIG. 31D, top panel, lanes 9-14). […] The total amount of proteins in the tested lanes was normalized before loading, and equal loading was confirmed by Western blot using anti-a tubulin (FIG. 31D, bottom panel).\nTo determine whether the decrease in the level of SNIP-1 protein level is caused by proteasome mediated degradation, we used inhibitors of the proteasome. Proteasome inhibitors that selectively block different proteolytic activities of the proteasome are powerful tools for studying the role of proteasomes in many aspects of cell growth, differentiation and apoptosis (Hilt et al., 1993; Palomebella et al., 1994; Figueiredo-Pereira et al., 1994; Thraenckner et al., 1994; Read et al., 1995; Grimm et al., 1996, for reviews, see Coux et al., 1996). […]"}, "rat sympathetic neurons": {"system": "rat sympathetic neurons", "assay": "OP-1 induced dendritic growth of rat sympathetic neurons", "type": "cell-based", "conditions": "for inhibition of OP-1 induced dendritic growth: reversible peptidyl aldehyde inhibitors", "experimental": "If Smad1 and DPC4 signal through proteasome mediated proteolysis, proteasome inhibitors should block the signaling of BMPs. We thus directly tested the effects of the proteasome inhibitors on the signaling pathways of BMPs that signal via Smad1 activation. […] The EC50 for the inhibitory activity of lactacystin was ˜100 nM and maximal effects were obtained with 4-6 hour pretreatments (not shown).\nTo determine the time course of sensitivity to lactacystin with respect to the signaling pathway of OP-1, lactacystin was added to the media at various time points after the addition of OP-1 (FIG. 32, bottom panel B)."}, "endogenous HEF1": {"system": "endogenous HEF1", "assay": "TGF-β regulation of endogenous HEF1 in A549 lung carcinoma cells", "type": "cell-based", "experimental": "In A549 lung carcinoma cells, which predominantly express p115HEF1, a decrease of endogenous p115HEF1 was detected after 15 min exposure to TGF-β. Furthermore, LLnL was able to block the TGF-β induced decrease of endogenous HEF1, indicating the involvement of the proteasome in this event. The change of p105HEF1 in response to TGF-β was also observed, but not as apparent as p115HEF1 due to the very low level of p105HEF1 in this cell line. It was noted that the steady-state level of both p115HEF1 and p105HEF1 increased after 3 hrs of TGF-β stimulation. […] To directly test this, we performed a time-course Northern blot on HEF1 mRNA isolated from A549 cells treated with TGF-β for different time periods. […] Thus, TGF-β down-regulates HEF1 protein level via proteasomal degradation and also induces HEF1 mRNA level via transcriptional activation, which may serve as a negative feedback mechanism to restore HEF1 protein level."}, "HEF1 protein level": {"system": "HEF1 protein level", "assay": "Smad3-induced proteasomal degradation of HEF1 in 293 cells", "type": "cell-based", "conditions": "for Smad3-induced reduction (degradation) of HEF1 protein level: 293 cells, presence or absence of type I receptors", "excerpt": "Two different forms of HEF1, p115HEF1 and p105HEF1, have been previously reported to be derived from differential phosphorylation (Law et al., 1996, Mol. Cell. Boil. 16: 3327; Minegishi et al., 1996, J. Exp. Med. 184: 1365; Lae et al., 1998, supra). Both forms of HEF1 were detected at a similar level in 293 cells after HEF1 transfection for 24 hrs (data not shown). However, p115HEF1 was the predominant form that associates with Smad3, and to a much lesser extent, with Smad1 and Smad2. Neither p115HEF1 nor p105HEF1 was detected in the immunoprecipitates of Smad4.\nIt was tested whether the observed reduction of HEF1 level by Smad3 is regulated by TGF-β and activin type I receptor activation and whether the reduction is mediated by proteasomal degradation. The Smad3-mediated reduction of HEF1 protein level was further enhanced in the presence of the overexpressed wildtype TGF-β type I receptor and wildtype activin type I receptor, as well as the constitutively active mutant TGF-β type I receptor (R4T204D) and the activated mutant activin type I receptor (R2T206D)). […]\nLike other Smad family proteins, Smad3 can be divided into three subdomains: an amino-terminal MH1 domain, a central linker region and a carboxyl-terminal MH2 domain The N-terminal MH1 domain of Smad3 (Smad3N) has the ability to bind to specific DNA sequences (Massague, 1998, supra; Derynck et al., 1998, Cell 95: 737; Wrana, 2000, Cell 100: 189), whereas the C-terminal MH2 domain interacts with the TGF-β type I receptor as well as multiple transcriptional regulators (Massague, 1998, supra; Derynck, 1998, supra; Wrana, 2000, supra). […] In cells that were not treated with LLnL, p115HEF1 and smaller amount of p105HEF1 were detected in the immunoprecipitates of Smad3N, Smad3C and full length Smad3, with the strongest HEF1 signal detected in the immunoprecipitates of Smad3C. […] In fact, when LLnL stabilizes HEF1, the highest amount of HEF1 was detected in the immunoprecipitates of full length Smad3. […]"}, "[1]": {"system": "biological activities of BMPs and TGF-beta", "assay": "Inhibition of the biological activities of BMPs and TGF-beta (summary statement)"}, "[2]": {"system": "calpain, cathepsin B, chymotrypsin, trypsin and papain", "conditions": "cited from earlier work"}, "proteasome": {"system": "proteasome", "conditions": "LLnL versus LLM; cited from earlier work"}, "ischemic brain injury [3]": {"system": "ischemic brain injury", "conditions": "single ICV injection of 1 μg/kg at 2, 4 or 6 hour before; assessed 48 hours after injury; cited from earlier work"}, "ischemic brain injury [4]": {"system": "ischemic brain injury", "conditions": "cited from earlier work"}, "ischemic brain injury [5]": {"system": "ischemic brain injury", "conditions": "cited from earlier work", "remark": "listed apart in the source"}}, "note": "Where two headings read alike, the source gives them in different places. *1 amine or outer side, *2 acyl side, *3 side chain or, on linkers, in order; H or OH if unused. Where a SMILES comes first, the peptide text is derived from it. Bridges are numbered along the chain shown (N, C = ends). Roman numbers before positions name the chains, in order. [ ]: non-standard residue; d: D form. Actinocin(9to1) = Cc1c2oc3c(C)ccc(C(=O)[*:1])c3nc-2c(C(=O)[*:2])c(N)c1=O; NMeV = CN[C@H](C(=O)O)C(C)C; Sar = CNCC(=O)O"}
{"compound": "CSCCC(C=O)NC(=O)C(CC(C)C)NC(=O)C(CC(C)C)NC(C)=O", "note": "(stereo not drawn) [LLM] (Ac-Leu-Leu-Met-aldehyde; configuration not given here)", "values": [{"measurement": "ALK3Q233D induced decrease of SNIP-1 protein level", "setting": "SNIP-1 protein level", "result": "reversed"}, {"measurement": "inhibition of OP-1 induced dendritic growth", "setting": "rat sympathetic neurons", "result": "Inhibition of OP-1 induced dendritic growth was also observed"}]}
{"compound": "Cc1c2oc3c(C)ccc(C(=O)N[C@@H]4C(=O)N[C@H](C(C)C)C(=O)N5CCC[C@H]5C(=O)N(C)CC(=O)N(C)[C@@H](C(C)C)C(=O)O[C@@H]4C)c3nc-2c(C(=O)N[C@@H]2C(=O)N[C@H](C(C)C)C(=O)N3CCC[C@H]3C(=O)N(C)CC(=O)N(C)[C@@H](C(C)C)C(=O)O[C@@H]2C)c(N)c1=O", "note": "[actinomycin D, reference compound] (I: T[dV]P[Sar][NMeV] / II: T[dV]P[Sar][NMeV]; ester I:1-I:C, II:1-II:C; linker I:N-II:N via Actinocin(9to1))", "values": [{"measurement": "increase of steady-state p115HEF1 and p105HEF1 after 3 hrs of TGF-β stimulation", "setting": "endogenous HEF1", "result": "can be inhibited"}]}
{"compound": "CC(=O)N[C@@H](CSC(=O)[C@]1([C@@H](O)C(C)C)NC(=O)[C@H](C)[C@@H]1O)C(=O)O", "note": "[lactacystin]", "values": [{"measurement": "Smad3-induced reduction (degradation) of HEF1 protein level", "setting": "HEF1 protein level", "result": "blocked"}, {"measurement": "ALK3Q233D induced decrease of SNIP-1 protein level", "setting": "SNIP-1 protein level", "result": "reversed"}, {"measurement": "biological activities of BMPs and TGF-beta", "setting": "[1]", "result": "able to inhibit"}, {"measurement": "EC50", "setting": "rat sympathetic neurons; Sympathetic neuron, rat sympathetic neurons, read-out: EC50 for the inhibitory activity on OP-1 induced dendritic growth", "result": "~100", "unit": "nM"}, {"measurement": "OP-1 induced dendritic growth", "setting": "rat sympathetic neurons; added later than 3 hrs after OP-1", "result": "resistance to the inhibitory effects developed after 3 hrs and are apparent after 8 hrs"}, {"measurement": "OP-1 induced dendritic growth", "setting": "rat sympathetic neurons; added within 3 hrs of OP-1 exposure", "result": "fully inhibited"}, {"measurement": "ability to form dendrites in the presence of OP-1 or BMP-6", "setting": "rat sympathetic neurons; pretreatment for 4 hours", "result": "concentration-dependent decrease"}, {"measurement": "axonal growth or cell survival", "setting": "rat sympathetic neurons; rat sympathetic neurons", "result": "did not affect"}, {"measurement": "activity of other proteases", "setting": "[2]", "result": "does not inhibit"}]}
{"compound": "N-acetyl-L-Leucinyl-L-Leucinal-L-norleucinal [LLnL]", "values": [{"measurement": "TGF-β induced decrease of endogenous HEF1", "setting": "endogenous HEF1", "result": "able to block"}, {"measurement": "Smad3-induced reduction (degradation) of HEF1 protein level", "setting": "HEF1 protein level", "result": "able to block"}, {"measurement": "Smad3N-mediated reduction of p115HEF1", "setting": "HEF1 protein level; HEF1 co-expressed with Smad3N", "result": "blocked"}, {"measurement": "ALK3Q233D induced decrease of SNIP-1 protein level", "setting": "SNIP-1 protein level", "result": "reversed"}, {"measurement": "biological activities of BMPs and TGF-beta", "setting": "[1]", "result": "able to inhibit"}, {"measurement": "potency as inhibitor of proteasome activity", "setting": "proteasome", "result": "more potent inhibitor of proteasome activity than LLM"}, {"measurement": "inhibition of OP-1 activity, relative concentration", "setting": "rat sympathetic neurons; LLnL versus LLM", "result": "inhibited OP-1 activity at lower concentrations than LLM"}, {"measurement": "inhibition of OP-1 induced dendritic growth", "setting": "rat sympathetic neurons", "result": "Inhibition of OP-1 induced dendritic growth was also observed"}]}
{"compound": "TGF-β1: prototypical member of the TGFβ family of cytokines, exogenously administered", "values": [{"measurement": "decrease in ischemic area of the neocortex", "setting": "ischemic brain injury [3]", "result": "≈ 10%"}, {"measurement": "deficits in water maze learning ability and asymmetry in somatosensory functions", "setting": "ischemic brain injury [4]; 10 ng ICV, first 10 days after injury", "result": "improved"}, {"measurement": "intensity of microglial activation", "setting": "ischemic brain injury [4]; 10 ng, 48 hours after ischemic injury", "result": "significantly reduced"}, {"measurement": "neuroprotection", "setting": "ischemic brain injury [4]; 2 or 50 ng on the same schedule", "result": "did not provide significant neuroprotection"}, {"measurement": "area of cortical infarction", "setting": "ischemic brain injury [4]; dose response", "result": "bell-shaped dose-response effect"}, {"measurement": "neuroprotection in cortex, thalamus, striatum and dentate gyrus", "setting": "ischemic brain injury [4]; single ICV dose of 10 ng 2 hours after ischemic injury, assessed 5 days after", "result": "significant neuroprotection"}, {"measurement": "CA1-CA4 hippocampal neurons", "setting": "ischemic brain injury [4]; single ICV dose of 10 ng 2 hours after ischemic injury", "result": "not protected"}, {"measurement": "neuroprotection", "setting": "ischemic brain injury [5]; 0.5 or 50 ng ICV", "result": "no neuroprotection"}, {"measurement": "CA1 pyramidal cell survival", "setting": "ischemic brain injury [5]; same amount (4 ng) by ICV", "result": 48, "unit": "%"}, {"measurement": "pyramidal cell survival", "setting": "ischemic brain injury [5]; single 4 ng intrahippocampal injection 1 h prior to TFGI, assessed 7 days after", "result": 50, "unit": "%"}]}
